# From patent US11771692B2, “N-hydroxyethyl didehydroazapodophyllotoxins as GBP1 inhibitors and methods of overcoming treatment resistance in cancer” (The Board of Trustees of the Leland Stanford Junior …, priority 2018, dated 2023)
# Entries after “also recorded” stand apart in the source; their conditions may differ.
# Legend:
# OVCAR8 cells = assay: Colony formation (clonogenic) assay in OVCAR8 cells; assay type: cell-based
# [1] = In vivo pharmacokinetics, plasma concentration by LCMS; details: C57BL/6, mouse, C57BL6 female mice, single 10 mg/kg IP
# Procedure: FIG. 7, panel A illustrates in vivo PK studies, C57BL/6 mice. Drug concentration in plasma was quantified at different time points using LCMS after a single IP injection of SU093. FIG. 7, panel B illustrates the drug concentration in harvested ovaries and liver of C57BL/6 mice after 14 days of administration with SU093 (100 mg/kg) by daily IP injection.
# To investigate the pharmacokinetics and toxicity of the subject GBP1 inhibitors, in vivo pharmacokinetic studies with SU093 were conducted and the drug concentration in mice plasma at different time points after injection was determined (e.g. after 5, 10, 30, 60, 120, 360 minutes after injection). Non-tumor-bearing C57BL6 female mice (n=3/group of each time point) were used for these studies and the drug was administered in a single dose of 10 mg/kg intrepertoneally (IP) at different time points. After each time point 150 microliters of blood was withdraw from retro orbital sinus from the respective group of anesthetized (isoflurane) mice. Plasma was separated from each blood sample and mixed with an equal volume of acetonitrile (w/v). Precipitated protein was separated by centrifugation at 12,000 RPM for 10 min at 4° C. Clear supernatant was analyzed for quantification of SU093 using liquid chromatography mass spectroscopy (LCMS).
smiles,measurement,setting,value
COc1ccc2c(c1)N(CCO)C1=C(C(=O)OC1)C2c1ccccc1 (stereo not shown) [SU093],colony formation / clonogenic potential,OVCAR8 cells,dose-dependent inhibition of clonogenic potential; also recorded: dose-dependent inhibition of colony formation
same,Cmax,[1],1.6 µg/mL
same,Tmax,[1],5 min
same,half-life,[1],60 min
